The values below are quoted from earlier work in patent publication US20130267562A1, “ACTIVE ENANTIOMER OF DODECYL 2-(N,N-DIMETHYLAMINO)-PROPIONATE” (NEXMED HOLDINGS, INC, priority 2010, published 2013).

For `CCCCCCCCCCCCOC(=O)C(C)N(C)C` (racemic) [Racemic DDAIP, dodecyl 2-methyl-2-(N,N-dimethylamino)acetate], the “miscibility with organic solvents” value (most organic solvents) is reported as “miscible with most organic solvents”. Also, under “water”, the solubility in water entry was “not soluble”.
